{
  "source": "patent US4913909A",
  "about": "“Complex of tea-leaf extract and active aluminum hydroxide” (Mitsui Norin Co., Ltd., priority 1986, dated 1990)",
  "key": {"acute oral toxicity": {"test": "acute oral toxicity", "parameters": "species or system male mice of ddY strain", "details": "mouse, in vivo, male ddY mice, fasted overnight, read-out: 50% lethal dose (LD50)", "text": "Lastly, ATM and AEGCg were subjected to the test of acute toxicity by male mice of ddY strain each having a body weight of 20 to 25 g. After fasting overnight, the mice were orally administered with ATM or AEGCg with varied doses to determine the 50% lethal dose (LD50)."}, "[1]": {"tested_on": "pylorus-ligated ulcers (forestomach) of rats", "test": "therapeutic activity against pylorus-ligated gastric ulcers of rats (method of Shay et al.)", "format": "in vivo, male rats of Wistar strain", "details": "100 mg/kg p.o., 18 hours", "experimental": "After fasting 48 hours each rat was put to etherization and the stomach was ligated at the pyloric part. Immediately after the ligation, the rat was orally administered with a suspension of the ATM or AEGCg in a 5% solution of gum arabic. The control group was fed only the solution of gum arabic without either ATM or AEGCg. After 18 hours of abstinence from food and water, the rat was killed and the stomach was excised and incised along the greater curvature to examine the condition of ulcer appearing on the forestomach."}, "[2]": {"tested_on": "gastric juice / peptic activity in rats", "test": "antipeptic activity or effect on secretion of gastric juice in pylorus-ligated rats (method of Shay et al.)", "format": "in vivo, male rats of Wistar strain", "details": "200 mg/kg p.o., 6 hours", "experimental": "Further, the complexes were subjected to the test for the antipeptic activity or the effect on the secretion of gastric juice in rats according to the method of Shay, et al. Thus, a group of eight male rats of Wistar strain each having a body weight of about 200 g were used as the test animals. After 24 hours of fasting, the stomach of each rat was ligated at the pyloric part under etherization. Immediately after the ligation, the rat was orally administered with ATM or AEGCg suspended in a 5% solution of gum arabic. After 6 hours of abstinence from food and water, the rat was again etherized to take out the stomach as ligated at the cardiac end. The gastric juice in the stomach was put to centrifugal separation to give a supernatant of which the volume, overall acidity and overall peptic activity were measured to give the results shown in Table 3."}, "[3]": {"tested_on": "indomethacin-induced ulcers (glandular stomach) of rats", "test": "therapeutic effect against indomethacin ulcers of rats (method of Somogi et al.)", "format": "in vivo, male rats of Wistar strain", "details": "indomethacin 25 mg/kg, 100 mg/kg p.o., 7 hours", "experimental": "The complexes prepared in Examples 1 and 2, referred to as ATM and AEGCg, respectively, hereinbelow, were tested for the therapeutic activity against gastric ulcers of rats such as pylorus-ligated or indomethacin-induced ulcers.\nSeparately, according to the method of Somogi, et al. disclosed in J. Pharm. Pharmac., volume 21, page 122 (1969), a group of light male rats of Wistar strain each having a body weight of about 200 g were used to test the therapeutic effect of the complexes against indomethacin ulcers. Each of the rats belonging to the test group was, after 24 hours of fasting, orally administered with ATM or AEGCg suspended in a 5% solution of gum arabic followed by oral administration of indomethacin in a dose of 25 mg/kg body weight after 30 minutes from the administration of the ATM or AEGCg. After 7 hours abstinence from food and water, the rat was killed and the stomach was excised and incised along the greater curvature to measure the length of the ulcers appearing on the glandular stomach. The overall length of the ulcers is given in Table 2 below as the ulcer index. The control group was treated in the same manner as above excepting ATM or AEGCg in the gum arabic solution."}},
  "data": [
    {"molecule": "O=C(O[C@@H]1Cc2c(O)cc(O)cc2O[C@@H]1c1cc(O)c(O)c(O)c1)c1cc(O)c(O)c(O)c1", "note": "[EGCg, (-)-epigallocatechin gallate]", "values": [
      {"measurement": "LD50", "setting": "acute oral toxicity", "value": 2500, "unit": "mg/kg"}
    ]},
    {"molecule": "Sucralfate", "values": [
      {"measurement": "Ulcer index", "setting": "[1]", "value": "2.86 ± 0.40"},
      {"measurement": "Suppression (%)", "setting": "[1]; ulcer index vs control", "value": 41.5, "unit": "%"},
      {"measurement": "Overall acidity (mEq/liter)", "setting": "[2]", "value": "85.4 ± 3.8", "unit": "mEq/liter"},
      {"measurement": "Peptic activity (mg tyrosine)", "setting": "[2]", "value": "585.3 ± 68.0", "unit": "mg tyrosine"},
      {"measurement": "Volume of gastric juice (ml/rat)", "setting": "[2]", "value": "7.98 ± 0.39", "unit": "ml/rat"},
      {"measurement": "Suppression (%)", "setting": "[2]; peptic activity vs control", "value": 35.0, "unit": "%"}
    ]},
    {"molecule": "CN/C(=N/CCSCc1nc[nH]c1C)NC#N", "note": "[Cimetidine]", "values": [
      {"measurement": "Ulcer index (mm)", "setting": "[3]; overall length of ulcers", "value": "13.3 ± 2.8", "unit": "mm"},
      {"measurement": "Suppression (%)", "setting": "[3]; ulcer index vs control", "value": 62.4, "unit": "%"}
    ]}
  ]
}
